Drawing on patent publication US20210238139A1, “MODULATORS OF TRYPTOPHAN CATABOLISM” (E-Therapeutics PLC, priority 2018, published 2021), this text covers IC50 and Cell viability for 22 compounds.

Data set [1] concerns SK-OV-3 cells. As to the kind of experiment: Effect of compounds on tryptophan catabolism in SK-OV-3 cell line (inhibition of kynurenine production, LC-MS/MS). The class given is cell-based. Conditions: Homo sapiens, SK-OV-3, 24 h, SK-OV-3 cell line, 24 h incubation, kynurenine in supernatant by LC-MS/MS; read-out: IC50 Ranges (ic50 values for inhibition of Kynurenine production). The method in brief:
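Kynurenine in supernatants quantified by LC-MS/MS after 24 h compound exposure (37 °C; top 30 μM, eight 3-fold steps, duplicate) in DMEM F-12 containing 6 mg/mL L-tryptophan. Cells pre-plated overnight in McCoy's 5A with 10% FBS. Viability checked in parallel by ATP luminescence.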

Data set [2] concerns monocyte-derived dendritic cells. As to the kind of experiment: Cell viability / cytotoxicity in monocyte-derived dendritic cells (ATP, CellTiter Glo). The class given is cell-based, human. Conditions: 24 h, unit assumed. Here is the method: (§1) Peripheral blood mononuclear cells are isolated from buffy coats from healthy volunteers by Lymphoprep density gradient centrifugation, followed by lysis of residual erythrocytes with isotonic buffer solution of ammonium chloride. CD14+ cells are isolated by positive selection using MACS® technology and CD14 MicroBeads (Miltenyi Biotec) according to manufacturer's instructions. The isolated monocytes are differentiated into dendritic cells by incubation for 5 days in RPMI-1640 medium supplemented with 10% fetal bovine serum (FBS), 50 ng/mL GM-CSF and 35 ng/mL IL-4. After 5 days the DCs are seeded in 96-well plates in DMEM supplemented with 10% charcoal stripped FBS, GM-CSF and IL-4. The following day cells are triggered with LPS and IFNγ. After 24 h of incubation medium is replaced with DMEM F-12 medium supplemented with 6 mg/mL L-tryptophan and 10% charcoal stripped FBS. Compounds are added to the cells and incubated for 24 h at 37° C., 5% CO2, 95% humidity. Compounds are tested at 7 consecutive 4-fold dilutions starting from 30 μM in duplicate.
(§2) At the end of incubation concentration of kynurenine in cell supernatants is determined by LC-MS/MS. In parallel, cell viability is assessed by measurement of ATP by use of CellTiter Glo assay (Promega) according to manufacturer's protocol.
Cell viability results are analysed in Microsoft Excel and expressed as fold change over untreated control.
A general note: In ATP-based viability assays light output follows the ATP content of the culture.

The test system is the same in data set [3]. Description: Effect of compounds on tryptophan catabolism in monocyte-derived dendritic cells (kynurenine production). Conditions: Homo sapiens, Dendritic cell; dendritic cells triggered with LPS and IFNγ, 24 h with compound. The class given is cell-based. How it is done:
as §1, §2
Inhibition of Kyn production is calculated using the following formula:
(1−(Kyn conc. cmpd.−Kyn conc. medium)/(Kyn conc. medium with cells−Kyn conc. medium))·100
IC50 values are determined using GraphPad Prism software 5.04 for Windows, by plotting percent of inhibition against log 10 concentrations of compounds using a four-parametric sigmoidal curve with a variable slope.

Data set [4] addresses T1, TDO2 enzyme (Homo sapiens, UniProt P48775).
T1 construct: purchased Netherlands Translational Research Center B.V. NTRC-hTDO-1K
Description: TDO2 enzyme inhibition assay (hTDO2 assay kit, NFK-green). Conditions: TDO2 enzyme 50 nM, tryptophan 200 μM, top concentration 30 μM; read-out: TDO2 Biochemical assay IC50. How it is done:
The effect of compounds on TDO2 enzymatic activity was assess by use of an hTDO2 assay kit (Netherlands Translational Research Center B.V., Cat #NTRC-hTDO-1K). TDO2 enzyme and tryptophan substrate are diluted in assay buffer. Compounds are tested at 8 consecutive 3-fold dilutions starting from 30 μM. 267 nL of compound is added per well of a 384-well plate followed by addition of 10 μL of assay buffer. TDO2 enzyme is added at a final concentration of 50 nM and pre-incubated for 60 min at room temperature in the dark. Tryptophan substrate solution is then added at final concentration of 200 μM to all wells and the plate incubated for 15 min at RT in the dark. Finally NFK-green reagent is added at ⅕ of total reaction volume and incubated for 4 h at RT in the dark. After incubation fluorescence is measured at Ex405 nm-Em535 nm using EnVision plate reader.
(§3) IC50 values are determined using GraphPad Prism software 5.04 for Windows by plotting percent of inhibition against log 10 concentrations of compounds using a four-parametric sigmoidal curve with a variable slope.

Data set [5] addresses T2, IDO1 enzyme (Homo sapiens, UniProt P14902).
T2 construct: purchased Netherlands Translational Research Center B.V. NTRC-hIDO-1K
Description: IDO1 enzyme inhibition assay (hIDO assay kit, NFK-green). Conditions: IDO1 enzyme 25 nM, tryptophan 100 μM, top concentration 30 μM; read-out: IDO1 Biochemical assay IC50. How it is done:
The effect of compounds on IDO1 enzymatic activity was assessed by use of a hIDO assay kit (Netherlands Translational Research Center B.V., Cat #NTRC-hIDO-1K). IDO1 enzyme and tryptophan substrate are diluted in assay buffer. Compounds are tested at 8 consecutive 3-fold dilutions starting from 30 μM. 267 nL of compound is added per well of a 384-well plate followed by addition of 10 μL of assay buffer. IDO1 enzyme is added at a final concentration of 25 nM and pre-incubated for 30 min at room temperature in the dark. Tryptophan substrate solution is then added at final concentration of 100 μM to all wells and the plate incubated for 60 min at RT in the dark. Finally NFK-green reagent is added at ⅕ of total reaction volume and incubated for 4 h at RT in the dark. After incubation fluorescence is measured at Ex405 nm-Em535 nm using EnVision plate reader.
as §3

Values joined by “and” are separate entries in the source; they are usually repeats but may differ in a detail not shown here. Equal values may be shown once.

T2 sequence (P14902 whole entry): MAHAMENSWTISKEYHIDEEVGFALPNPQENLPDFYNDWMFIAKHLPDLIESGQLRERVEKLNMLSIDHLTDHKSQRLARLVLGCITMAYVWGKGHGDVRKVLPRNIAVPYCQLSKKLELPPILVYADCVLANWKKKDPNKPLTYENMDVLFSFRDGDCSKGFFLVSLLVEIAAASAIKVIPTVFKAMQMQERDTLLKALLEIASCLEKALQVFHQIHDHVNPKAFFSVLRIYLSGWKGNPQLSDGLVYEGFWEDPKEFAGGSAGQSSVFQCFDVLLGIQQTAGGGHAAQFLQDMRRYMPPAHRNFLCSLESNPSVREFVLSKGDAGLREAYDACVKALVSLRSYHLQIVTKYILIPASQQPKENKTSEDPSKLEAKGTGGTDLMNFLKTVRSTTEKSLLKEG
T1 sequence (P48775 whole entry): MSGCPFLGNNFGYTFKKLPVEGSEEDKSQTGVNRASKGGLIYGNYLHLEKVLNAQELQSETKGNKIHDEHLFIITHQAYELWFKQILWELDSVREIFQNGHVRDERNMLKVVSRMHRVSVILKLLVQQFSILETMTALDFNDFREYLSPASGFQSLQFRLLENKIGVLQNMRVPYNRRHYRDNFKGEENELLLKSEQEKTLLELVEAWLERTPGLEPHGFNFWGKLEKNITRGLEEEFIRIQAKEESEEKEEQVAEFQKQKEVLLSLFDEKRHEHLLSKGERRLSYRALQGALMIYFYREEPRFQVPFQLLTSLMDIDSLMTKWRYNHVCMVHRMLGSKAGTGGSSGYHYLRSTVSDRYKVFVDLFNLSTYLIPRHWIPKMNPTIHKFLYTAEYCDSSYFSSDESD

The IC50 is the midpoint of a concentration-inhibition curve. Take `N#Cc1ccc(NC(=O)N(Cc2cccc(C(F)(F)F)c2)C2CCCC2)cc1` [Compound 89, 3-(4-cyanophenyl)-1-cyclopentyl-1-[[3-(trifluoromethyl)phenyl]methyl]urea]: the IC50 in data set [1] was less than 100 nM; in data set [3], 65 nM. Further, the Cell viability at 30 uM (% of untreated control) in data set [2] stood at 81%.
The matching figures for `Cc1ccc(CN(C(=O)Nc2ccc(F)cc2)C2CCC2)o1` [Compound 82, 1-cyclobutyl-3-(4-fluorophenyl)-1-[(5-methyl-2-furyl)methyl]urea]: 100 to 500 nM, 300 nM and 85%.
As for `O=C(Nc1ccc(F)c(F)c1)N(Cc1cccc(C(F)(F)F)c1)C1CCCC1` [Compound 140, 1-cyclopentyl-3-(3,4-difluorophenyl)-1-[[3(trifluoromethyl)phenyl]methyl]urea], the IC50 in data set [1] was less than 100 nM; in data set [3] it was 320 nM. Also, the Cell viability at 30 uM (% of untreated control) in data set [2] turned out to be 92%.
Turning to `Cc1ccc(CN(C(=O)Nc2ccc(C#CCO)cc2)C2CCCC2)o1` [Compound 111, 1-cyclopentyl-3-[4-(3-hydroxyprop-1-ynyl)phenyl]-1-[(5-methyl-2-furyl)methyl]urea], the IC50 in data set [4] was 4.8 µM and 2.2 µM; in data set [1], less than 100 nM; in data set [5] it was greater than 30 µM.
Consider `N#Cc1ccc(NC(=O)N(Cc2cccc(C(F)(F)F)c2)C2CCC2)cc1` [Compound 91, 3-(4-cyanophenyl)-1-cyclobutyl-1-[[3-(trifluoromethyl)phenyl]methyl]urea], for which the IC50 in data set [1] is less than 100 nM; in data set [3], 36 nM. The Cell viability at 30 uM (% of untreated control) in data set [2] turned out to be 71%.
On to `O=C(Nc1ccc(F)c(F)c1)N(Cc1ccc(F)c(C(F)(F)F)c1)C1CCCC1` [Compound 139, 1-cyclopentyl-3-(3,4-difluorophenyl)-1-[[4-fluoro-3-(trifluoromethyl)phenyl]methyl]urea], for which the IC50 is less than 100 nM in data set [1] and 270 nM in data set [3]. For the same compound, in data set [2], the Cell viability at 30 uM (% of untreated control) is 77%.
`CCc1ccc(NC(=O)N(Cc2cccs2)C2CCCC2)cc1` [Compound 3, 1-cyclopentyl-3-(4-ethylphenyl)-1-(2-thienylmethyl)urea]: the IC50 in data set [4] was greater than 30 µM; in data set [1], 100 to 500 nM; in data set [5] it was greater than 30 µM.
`Cc1ccc(CN(C(=O)Nc2ccc(C#CC(C)(C)O)cc2)C2CCCC2)o1` [Compound 109, 1-cyclopentyl-3-[4-(3-hydroxy-3-methyl-but-1-ynyl)phenyl]-1-[(5-methyl-2-furyl)methyl]urea]: the IC50 was 6 µM in data set [4], 1000 to 5000 nM in data set [1] and greater than 30 µM in data set [5].
Take `O=C(Nc1ccc(Cl)cc1)N(Cc1cccs1)C1CCCC1` [Compound 56, 3-(4-chlorophenyl)-1-cyclopentyl-1-(2-thienylmethyl)urea]: the values for the 50% inhibitory concentration (IC50) in data set [1] and in data set [3] were less than 100 nM and 250 nM, respectively. The Cell viability at 30 uM (% of untreated control) in data set [2] was found to be 94%.
Consider `COCC#Cc1ccc(NC(=O)N(Cc2ccc(C)o2)C2CCCC2)cc1` [Compound 162, 1-cyclopentyl-3-[4-(3-methoxyprop-1-ynyl)phenyl]-1-[(5-methyl-2-furyl)methyl]urea], for which the IC50 is greater than 30 µM in data set [4], less than 100 nM in data set [1] and greater than 30 µM in data set [5].
On to `CC#Cc1ccc(NC(=O)N(Cc2ccc(C)o2)C2CCCC2)cc1` [Compound 154], for which the IC50 was greater than 30 µM in data set [4], less than 100 nM in data set [1] and greater than 30 µM in data set [5].
`Cc1ccc(CN(C(=O)Nc2ccc(C3=CCN(C(=O)OC(C)(C)C)C3)cc2)C2CCCC2)o1` [Compound 158, tert-butyl 3-[4-[[cyclopentyl-[(5-methyl-2-furyl)methyl]carbamoyl]amino]phenyl]-2,5-dihydropyrrole-1-carboxylate]: the results for the IC50 in data set [4], in data set [1] and in data set [5] were 6.4 µM, 500 to 1000 nM and greater than 30 µM, respectively.
For the compound `Cc1ccc(CN(C(=O)Nc2ccc(C#N)cc2)C2CCC2)o1` [Compound 84, 3-(4-cyanophenyl)-1-cyclobutyl-1-[(5-methyl-2-furyl)methyl]urea], the results for the IC50 in data set [1] and in data set [3] were less than 100 nM and 180 nM, respectively. For the same compound, the Cell viability at 30 uM (% of untreated control) in data set [2] was 108%.
For the compound `COCC#Cc1ccc(NC(=O)N(Cc2ccc(C)o2)c2cnoc2C)cc1` [Compound 279, 3-[4-(3-methoxyprop-1-ynyl)phenyl]-1-[(5-methyl-2-furyl)methyl]-1-(5-methylisoxazol-4-yl)urea], the IC50 in data set [1] was less than 100 nM; in data set [5], greater than 30 µM.
The matching figures for `Cc1ccc(CN(C(=O)Nc2ccc(Cl)cc2)c2cnoc2C)o1` [Compound 256, 3-(4-chlorophenyl)-1-[(5-methyl-2-furyl)methyl]-1-(5-methylisoxazol-4-yl)urea]: less than 100 nM and greater than 30 µM.
For the compound `Cc1ccc(CN(C(=O)Nc2ccc(C#N)cc2)c2ccnn2C)o1` [Compound 215, 3-(4-cyanophenyl)-1-[(5-methyl-2-furyl)methyl]-1-(2-methylpyrazol-3-yl)urea], the IC50 in data set [1] was greater than 5000 nM; in data set [5], greater than 30 µM.
In the case of `O=C(Nc1ccc(Cl)cc1)N(Cc1ccnc(C(F)(F)F)c1)C1CCCC1` [Compound 148, 3-(4-chlorophenyl)-1-cyclopentyl-1-[[2-(trifluoromethyl)-4-pyridyl]methyl]urea], the IC50 in data set [1] is less than 100 nM; in data set [3] it was 150 nM. For the same compound, the Cell viability at 30 uM (% of untreated control) in data set [2] was found to be 103%.
As for `N#Cc1cc(CN(C(=O)Nc2ccc(Cl)cc2)C2CCCC2)ccc1F` [Compound 146, 3-(4-chlorophenyl)-1-[(3-cyano-4-fluoro-phenyl)methyl]-1-cyclopentyl-urea], the 50% inhibitory concentration (IC50) in data set [1] was less than 100 nM; in data set [3], 120 nM. Also, the Cell viability at 30 uM (% of untreated control) in data set [2] came out at 103%.
On to `O=C(Nc1ccc(Cl)cc1)N(Cc1cn2ccsc2n1)C1CCC1` [Compound 269, 3-(4-chlorophenyl)-1-cyclobutyl-1-(imidazo[2,1-b]thiazol-6-ylmethyl)urea], for which the IC50 in data set [1] is 100 to 500 nM; in data set [5], greater than 30 µM.
The matching figures for `Cc1ccc(CN(C(=O)Nc2ccc(C#N)cc2)c2cnoc2C)o1` [Compound 257, 3-(4-cyanophenyl)-1-[(5-methyl-2-furyl)methyl]-1-(5-methylisoxazol-4-yl)urea]: less than 100 nM and greater than 30 µM.
For the compound `N#Cc1ccc(NC(=O)N(Cc2ccc3ncsc3c2)C2CCC2)cc1` [Compound 213, 1-(1,3-benzothiazol-6-ylmethyl)-3-(4-cyanophenyl)-1-cyclobutyl-urea], the IC50 in data set [1] is less than 100 nM; in data set [5], greater than 30 µM.
On to `Cc1ccc(CN(C(=O)Nc2ccc(Cl)cc2)c2conc2C)o1` [Compound 277, 3-(4-chlorophenyl)-1-[(5-methyl-2-furyl)methyl]-1-(3-methylisoxazol-4-yl)urea], for which the IC50 in data set [1] is less than 100 nM; in data set [5], greater than 30 µM.
